Test results taken from patent US12037324B2, “Biarylmethyl heterocycles” (Université de Montréal, priority 2016, dated 2024).

Tests used:
AGTR1 [1] = target: T1, AGTR1 (Homo sapiens, UniProt P30556); assay: DiscoveRx β-arrestin2 recruitment assay (enzyme complementation, Pathunter CHO-K1 AGTR1 β-arrestin cell line); format: cell-based; conditions: DiscoveRx β-arrestin2 recruitment; for DiscoveRx β-arrestin2 Ymax (%): maximal response
T1 construct: host or cells: Pathunter CHO-K1 AGTR1 β-arrestin cell line (CHO-K1)
T1 sequence (P30556 1-359): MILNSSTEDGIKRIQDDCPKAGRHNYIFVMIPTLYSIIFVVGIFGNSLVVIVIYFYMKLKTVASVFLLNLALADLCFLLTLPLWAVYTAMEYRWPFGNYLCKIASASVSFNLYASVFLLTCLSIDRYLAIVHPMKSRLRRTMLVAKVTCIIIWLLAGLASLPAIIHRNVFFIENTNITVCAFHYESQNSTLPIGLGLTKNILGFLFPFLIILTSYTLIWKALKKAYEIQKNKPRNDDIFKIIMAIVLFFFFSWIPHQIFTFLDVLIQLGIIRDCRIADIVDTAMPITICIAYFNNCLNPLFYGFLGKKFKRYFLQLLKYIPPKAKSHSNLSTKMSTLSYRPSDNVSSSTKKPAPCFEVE
Summary of the method: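 CHO-K1 cells expressing AGTR1 with β-arrestin2 enzyme-complementation reporter, plated 14-16 h ahead in 1% serum medium, then exposed to compounds for 90 min at 37° C. Chemiluminescence read after 1 h detection. EC50 (agonist) or IC50 (antagonist) from 4-parameter logistic fit; activity as percentage of All maximal effect.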

AGTR1 [2] = target: T1, AGTR1; assay: DiscoveRx IP1 accumulation assay (HTRF), agonist mode, Pathunter CHO-K1 AGTR1 β-arrestin cell line; format: cell-based; conditions: for EC50: read-out: IP-1 EC50
Summary of the method: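 Agonist mode in CHO-K1 AGTR1 β-arrestin cells plated 14-16 h before; compounds at varying concentrations for 90 min at 37° C, IP1 accumulation read by HTRF (D2-conjugate and anti-IP1 cryptate, 20 min room temperature). EC50 from 4-parameter logistic fit; activity given as percentage of maximal AII effect.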

hAT1R [3] = target: T2, hAT1R (Homo sapiens, UniProt P30556); assay: cell-based
T2 sequence (P30556 1-359): T1 sequence (P30556 1-359)

hAT1R [4] = target: T2, hAT1R; assay: cell-based; conditions: agonist mode; for EC50: read-out: BRET P63 EC50
hAT1R [5] = target: T2, hAT1R; assay: BRET β-arrestin2 biosensor assay, higher receptor expression (hAT1R 5 ng/well), HEK293 cells; format: cell-based
[6] = Low AT1R Expression, read-out: BRET β-Arrestin2 Low AT1R Expression EC50
[7] = section of the 42nd table ending at r951, example numbering restarts after the DiscoveRx section, read-out: β-arrestin2 EC50

Row | Structure (SMILES) | EC50 (AGTR1 [1]) [nM] | DiscoveRx β-arrestin2 Ymax (%) (AGTR1 [1]) | IP-1 Ymax (%) (AGTR1 [2]) | EC50 (AGTR1 [2]) [nM] | BRET β-Arrestin2 Low AT1R Expression Ymax (%) (hAT1R [3]; Low AT1R Expression) | EC50 (hAT1R [3]; [6]) [nM] | BRET P63 Ymax (hAT1R [4]) [%] | EC50 (hAT1R [4]) [nM] | EC50 (hAT1R [3]; [7]) [nM] | BRET β-Arrestin2 High AT1R Expression Ymax (%) (hAT1R [5]) | EC50 (hAT1R [5]; High AT1R Expression) [nM]
1 | CCCCC1=NC2(CCOC2)C(=O)N1Cc1ccc(-c2cc(-c3ccccc3O)ccc2-c2nnn[nH]2)cc1 (single isomer, unassigned) [Example 150] | 13.7 | 45.6 | 17.2 | 20.7 | 65.7 | 76.9 | 14.6 | 105 |  |  | 
2 | CCCCC1=NC2(CCOC2)C(=O)N1Cc1ccc(-c2cc(-c3ccccc3O)ccc2-c2nnn[nH]2)cc1 (single isomer, unassigned) [Example 151] | 76.4 | 44.3 | 14.0 | 607 | 42.5 | 419 | 11.0 | 174 |  |  | 
3 | CCCCC1=NC2(CCOC2)C(=O)N1Cc1ccc(-c2cc(-c3cccc(C)c3)ccc2-c2nnn[nH]2)cc1 (single isomer, unassigned) [Example 152] | 11.6 | 28.6 | 7.0 | 30.7 |  |  |  | > 100000 | 21.8 |  | 
4 | CCCCC1=NC2(CCOC2)C(=O)N1Cc1ccc(-c2cc(-c3cccc(C)c3)ccc2-c2nnn[nH]2)cc1 (single isomer, unassigned) [Example 153] | 28.7 | 19.6 | 6.0 | 229 |  |  |  | > 100000 | 54.1 |  | 
5 | CCCCC1=NC2(CCOC2)C(=O)N1Cc1ccc(-c2cc(-c3cc(C)ccn3)ccc2-c2nnn[nH]2)cc1 (single isomer, unassigned) [Example 154] | 14.1 | 48.7 | 14.4 | 40.6 |  |  | 25.3 | 57.7 | 63.9 |  | 
6 | CCCC1=NC2(CCOC2)C(=O)N1Cc1ccc(-c2cc(-c3cccc(C)c3)ccc2-c2nnn[nH]2)cc1 (single isomer, unassigned) [Example 159] | 51.4 | 44.0 | 11.3 | 78.1 |  |  | 11.5 | 79.3 | 40.3 |  | 
7 | CCCC1=NC2(CCOC2)C(=O)N1Cc1ccc(-c2cc(-c3ccccc3O)ccc2-c2nnn[nH]2)cc1 (single isomer, unassigned) [Example 160] | 87.8 | 50.2 | 15.8 | 132 |  |  | 18.6 | 79.7 | 98.5 |  | 
8 | CCCC1=NC2(CCOC2)C(=O)N1Cc1ccc(-c2cc(-c3ccccc3F)ccc2-c2nnn[nH]2)cc1 (single isomer, unassigned) [Example 161] | 88.5 | 40.7 | 14.2 | 203 |  |  | 10.9 | 49.6 | 46.3 |  | 
9 | CCCC1=NC2(CCOC2)C(=O)N1Cc1ccc(-c2cc(-c3ccccc3)ccc2-c2nnn[nH]2)cc1 (single isomer, unassigned) [Example 162] | 147 | 31.9 | 8.9 | 235 |  |  |  | > 10000 | 373 |  | 
10 | CCCC1=NC2(CCOC2)C(=O)N1Cc1ccc(-c2cc(-c3cccc(C)c3)ccc2-c2nnn[nH]2)cc1 (single isomer, unassigned) [Example 163] | 69.2 | 34.6 | 7.8 | 181 |  |  |  | > 10000 | 91.8 |  | 
11 | CCCC1=NC2(CCOC2)C(=O)N1Cc1ccc(-c2cc(-c3ccccc3O)ccc2-c2nnn[nH]2)cc1 (single isomer, unassigned) [Example 164] | 76 | 58.7 | 17.3 | 231 |  |  | 15.6 | 106 | 160 |  | 
12 | CCC1=NC2(CCOC2)C(=O)N1Cc1ccc(-c2cc(-c3ccccc3)ccc2-c2nn[nH]n2)cc1 (single isomer, unassigned) [Example 165] | 56.8 | 45.7 | 17.7 | 192 |  |  | 14.1 | 262 | 281 |  | 
13 | CCC1=NC2(CCOC2)C(=O)N1Cc1ccc(-c2cc(-c3cccc(C)c3)ccc2-c2nnn[nH]2)cc1 (single isomer, unassigned) [Example 166] | 23.1 | 47.5 | 14.8 | 103 |  |  | 22.7 | 65 | 64.5 |  | 
14 | CCc1nc2c(C)cc(C)nc2n1Cc1ccc(-c2cc(N3CCC4(CCOC4)C3)ccc2-c2nn[nH]n2)cc1 (stereo not shown) [Example 92] |  |  | 51.1 | 1400 | 66.5 | 309 | 17.8 | 278 |  |  | 
15 | CCCCC1=NC2(CCCC2)C(=O)N1Cc1ccc(-c2cc(-c3cccc(F)c3)ccc2-c2nn[nH]n2)cc1 [Example 127] |  |  |  |  | 29.5 | 17.3 |  | > 10000 |  | 82.7 | 23.6
16 | CCc1nc2c(C)cc(C)nc2n1Cc1ccc(-c2cc(-n3cc(C)c(C)n3)ccc2-c2nnn[nH]2)cc1 [Example 223] |  |  |  |  |  |  | 9.8 | 5.9 | 9.2 |  | 
17 | CCc1nc2c(C)cc(C)nc2n1Cc1ccc(-c2cc(-n3cc(C(F)(F)F)cn3)ccc2-c2nnn[nH]2)cc1 [Example 224] |  |  |  |  |  |  | 20.8 | 11.3 | 7.6 |  | 
18 | CCc1nc2c(C)cc(C)nc2n1Cc1ccc(-c2cc(-c3cn(CC(F)F)nn3)ccc2-c2nnn[nH]2)cc1 [Example 242] |  |  |  |  |  |  | 45.6 | 41.6 | 28.2 |  | 
19 | CCc1nc2c(C)cc(C)nc2n1Cc1ccc(-c2cc(Oc3cccc(F)n3)ccc2-c2nn[nH]n2)cc1 [Example 256] |  |  |  |  |  |  | 30.5 | 43 | 34.5 |  | 
20 | CCOc1nc2cccc(C(=O)O)c2n1Cc1ccc(-c2cc(-c3ccc(C)cn3)ccc2-c2noc(=O)[nH]2)cc1 [Example 300, 2-ethoxy-1-((5′-(5-methylpyridin-2-yl)-2′-(5-oxo-4,5-dihydro-1,2,4-oxadiazol-3-yl)-[1,1′-biphenyl]-4-yl)methyl)-1H-benzo[d]imidazole-7-carboxylic acid] |  |  |  |  |  |  | 25.1 | 9 | 12.8 |  | 
21 | CCOc1nc2cccc(C(=O)O)c2n1Cc1ccc(-c2cc(-c3cc(OC)ccn3)ccc2-c2noc(=O)[nH]2)cc1 [Example 301] |  |  |  |  |  |  | 31.2 | 13.6 | 14.8 |  | 
22 | CCOc1nc2cccc(C(=O)O)c2n1Cc1ccc(-c2cc(-c3cccc(C)n3)ccc2-c2noc(=O)[nH]2)cc1 [Example 304] |  |  |  |  |  |  | 17.3 | 29.7 | 38.3 |  | 
23 | CCOc1nc2cccc(C(=O)O)c2n1Cc1ccc(-c2cc(-c3cnccn3)ccc2-c2noc(=O)[nH]2)cc1 [Example 307] |  |  |  |  |  |  |  | > 10000 | 962 |  | 
24 | CCOc1nc2cccc(C(=O)O)c2n1Cc1ccc(-c2cc(N3CCC[C@@H](C)C3)ccc2-c2noc(=O)[nH]2)cc1 [Example 325] |  |  |  |  |  |  |  | > 10000 | 201 |  | 
25 | CCOc1nc2cccc(C(=O)O)c2n1Cc1ccc(-c2cc(-n3cc(C)cn3)ccc2-c2nn[nH]n2)cc1 [Example 340] |  |  |  |  |  |  | 17.3 | 2.9 | 5.8 |  | 
26 | CCOc1nc2cccc(C(=O)O)c2n1Cc1ccc(-c2cc(-n3cc4ccccc4n3)ccc2-c2nn[nH]n2)cc1 [Example 341] |  |  |  |  |  |  | 18.8 | 4.4 | 12.2 |  | 
27 | CCOc1nc2cccc(C(=O)O)c2n1Cc1ccc(-c2cc(-n3ncc4ccccc43)ccc2-c2nn[nH]n2)cc1 [Example 342] |  |  |  |  |  |  | 16.5 | 3.3 | 3.6 |  | 
28 | CCOc1nc2cccc(C(=O)O)c2n1Cc1ccc(-c2cc(OC3CCCCC3)ccc2-c2nn[nH]n2)cc1 [Example 343] |  |  |  |  |  |  | 15.3 | 26.7 | 26.2 |  | 
29 | CCOc1nc2cccc(C(=O)O)c2n1Cc1ccc(-c2cc(-n3cc(C(C)C)nn3)ccc2-c2nn[nH]n2)cc1 [Example 344] |  |  |  |  |  |  | 10.4 | 16.8 | 767 |  | 
30 | CCCCc1nc(Cl)c(C(=O)O)n1Cc1ccc(-c2cc(Oc3cccnc3)ccc2-c2nn[nH]n2)cc1 [Example 428] |  |  |  |  |  |  |  | > 10000 | 122 |  | 
